26 compounds from patent EP0498830B1, “GLUTAMIC AND ASPARTIC ACID DERIVATIVES WITH ANTIGASTRIN ACTIVITY AND A METHOD FOR THEIR PREPARATION” (ROTTA RESEARCH LABORATORIUM S.P.A., priority 1989, dated 1991) can be followed below.

Where two headings read alike, the source gives them in different places.

The target of test [1] is T1, gastrin receptor sites on the parietal cell membranes of the fundic mucosa of a guinea-pig stomach (Cavia porcellus, UniProt H0VZC5).
T1 sequence (H0VZC5 1-426): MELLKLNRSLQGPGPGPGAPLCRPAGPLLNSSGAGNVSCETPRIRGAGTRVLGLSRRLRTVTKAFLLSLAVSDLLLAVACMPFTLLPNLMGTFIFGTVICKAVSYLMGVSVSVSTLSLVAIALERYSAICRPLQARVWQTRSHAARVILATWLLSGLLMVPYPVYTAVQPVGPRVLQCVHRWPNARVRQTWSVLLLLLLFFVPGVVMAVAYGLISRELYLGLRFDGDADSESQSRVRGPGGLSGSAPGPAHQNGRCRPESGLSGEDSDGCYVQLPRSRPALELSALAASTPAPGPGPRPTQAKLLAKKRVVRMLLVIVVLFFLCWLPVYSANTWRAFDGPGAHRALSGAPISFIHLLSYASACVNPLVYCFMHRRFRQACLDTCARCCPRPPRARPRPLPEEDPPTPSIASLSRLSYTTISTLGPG
The test can be described thus: Inhibition of binding of tritiated pentagastrin to isolated guinea-pig gastric glands. Further details: from tissue; host or cells: isolated gastric glands from guinea-pig fundic mucosa (collagenase digestion). As to the method:
The capacity of some of the compounds which are the subject of the invention to inhibit the binding of pentagastrin-[beta-alanyl-3-3H(N)] to the gastrin receptor sites on the parietal cell membranes of the fundic mucosa of a guinea-pig stomach was evaluated by comparison with the displacement of pentagastrin induced by proglumide, which is a reference antigastrin compound, by lorglumide, which is a powerful CCK antagonist mentioned above, and by the compound D5 which is the optical antipode (the L-series enantiomer) of the compound D1.
Male guinea pigs weighing about 400-500g were used. After the guinea pig had been killed, its stomach was removed and placed in oxygenated SPB buffer at 37°C (SPB = saline phosphate buffer: 149.6 mM NaCl, 3 mM K₂HPO₄, 0.64 mM NaH₂PO₄, pH 7.3).
After washing in the buffer, the stomach was placed on a petri dish and the antral part discarded.
The mucosa of the remaining part was removed from the underlying muscular part and was then chopped and transferred to a flask containing a collagenase digestion solution, 0.1% BSA and 0.2% glucose. The solution was incubated at 37°C for 10 minutes under agitation and a stream of 0₂.
During the incubation period, the tissue was passed several times through a series of pipettes with decreasing diameters in order to facilitate its digestion. At the end of the period, the tissue was removed and centrifuged at 1000 rpm. The supernatant liquid resulting from the centrifuging was discarded and the pellet washed several times with a washing buffer containing EPTA to remove the collagenase.
The glands were then isolated from the undigested tissue by conventional techniques, suspended in Hepes buffer for binding and incubated together with a radioactive tracer and the compounds under test for 30 minutes at 25°C.
After the supernatant liquid had been removed by centrifuging, the radioactivity associated with the pellet was determined with a liquid scintillator. The specific binding was determined as the difference between the binding in the absence and in the presence of 10⁻⁶ M pentagastrin.
The results obtained are shown in Table 1 which gives the IC50, that is, the concentration (in moles/litre) of the antagonist which can displace 50% of the pentagastrin tritiate from the receptor.

The test system of test [2] is gastric acid secretion induced by pentagastrin. The test can be described thus: Antisecretive activity in anaesthetised rats, stimulant pentagastrin. To be noted: Rattus norvegicus, iv; pentagastrin 30 mcg/kg/h; I.V. bolus; anaesthetised rats; read-out: Antagonistic activity (ED50 mg/kg IV) towards gastric acid secretion induced by pentagastrin. The test is classed as in vivo. As to the method:
The antisecretive activity was determined in rats with the use of male animals weighing about 200g, anaesthetised with urethane. Gastric secretion was stimulated with pentagastrin. K.S. Lai's method (Gut 5, (1964), 327-341) was used, with slight modifications.
After tracheotomy, oesophageal and duodenal cannulae were inserted. A tepid solution (37°C) of 0.25 mM NaOH was perfused through the stomach by means of a peristaltic pump at a constant flow rate of 1 ml/minute. After stabilisation for 20 minutes, the dose of the stimulant, indicated in Table 3, dissolved in a physiological solution, was perfused for 120 minutes at a rate of 0.95 ml/hour. After 60 minutes of perfusion (basic stimulation), the products under test were administered intravenously (I.V.) in boli whilst the perfusion of the stimulant continued for a further 60 minutes. The acid secretion was recorded continuously as a function of time.
The activity of the product was evaluated as the reduction in the secreted acidity after administration of the product as a percentage of the basic acidity measured during the first 60 minutes of collection during which only pentagastrin was present.
The antagonistic compounds tested were administered in different doses so that an ID50 (that is the dose (in mg/Kg I.V.) which can inhibit the effect of the pentagastrin by 50% could be calculated.
The results thus obtained are given in the following table in which the activities of the compounds are expressed as ID50s under the stimulus of pentagastrin at 30 mcg/Kg/h.

Test [3] addresses T2, central gastrin receptors (Mus musculus, UniProt P56481).
T2 sequence (P56481 1-453): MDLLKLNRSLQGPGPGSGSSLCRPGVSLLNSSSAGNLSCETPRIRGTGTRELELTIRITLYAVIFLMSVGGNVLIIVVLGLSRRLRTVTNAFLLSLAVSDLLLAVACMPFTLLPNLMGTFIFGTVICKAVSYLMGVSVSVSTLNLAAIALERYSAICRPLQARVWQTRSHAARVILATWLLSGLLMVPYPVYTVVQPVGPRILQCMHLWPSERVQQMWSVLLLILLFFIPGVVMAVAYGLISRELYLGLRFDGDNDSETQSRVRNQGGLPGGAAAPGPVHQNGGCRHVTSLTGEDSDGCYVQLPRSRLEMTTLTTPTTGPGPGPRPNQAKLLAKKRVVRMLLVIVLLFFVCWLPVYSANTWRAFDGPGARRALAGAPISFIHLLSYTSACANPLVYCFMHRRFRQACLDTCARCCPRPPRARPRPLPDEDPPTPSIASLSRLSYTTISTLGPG
As to the kind of experiment: Inhibition of binding of tritiated pentagastrin to mouse cerebral cortex membranes. Further details: Mouse cortex tissue was homogenised cold in 20 volumes of tris buffer (pH 7.7); from tissue; host or cells: mouse cerebral cortex membranes; species or system mice. To be noted: displacement of pentagastrin tritiate; 40 minutes at 37°C. Here is the method: Cerebral cortex membranes were therefore used and pentagastrin tritiate was again used as the ligand.
Mouse cortex tissue was homogenised cold in 20 volumes of tris buffer (pH 7.7). After washing and centrifuging, the final pellet was resuspended in 20 volumes of binding buffer containing, inter alia, TRIS, BSA and bacitracin. 0.4 ml of the membrane thus obtained were then incubated with a radioactive tracer and with the compounds under test for 40 minutes at 37°C.
After the supernatant liquid had been removed by centrifuging, the radioactivity associated with the pellet was determined, again with a liquid scintillator. The specific binding is the difference between the binding in the absence and in the presence of 10⁻⁶M pentagastrin.
Again, this gives the IC50s of the compounds tested with the meaning as given above.

Setting [4] is: displacement of 50% of pentagastrin tritiate, 30 minutes at 25°C, read-out: IC50.

The term IC50 denotes the concentration at which inhibition is half-maximal. For `CC(C)CCNC(=O)C(CCC(=O)O)NC(=O)c1cccc(Cl)c1` (racemic) [A2], in test [1] (setting [4]), the IC50 stood at 3100 nM. The ED50 in test [2] is 48 mg/kg.

Consider `CCCCCCNC(=O)C(CCC(=O)O)NC(=O)c1cccc(Cl)c1` (racemic) [A3], for which the concentration for half-maximal inhibition (IC50) in test [1] (setting [4]) is 4800 nM; in test [3] it was 7500 nM. The ED50 in test [2] is 54 mg/kg.

In the case of `CC(C)CCCNC(=O)C(CCC(=O)O)NC(=O)c1cccc(Cl)c1` (racemic) [A4], the IC50 in test [1] (setting [4]) was found to be 3300 nM. The ED50 in test [2] stood at 61 mg/kg.

As for `CCCCCCCNC(=O)C(CCC(=O)O)NC(=O)c1cccc(Cl)c1` (racemic) [A8], the IC50 in test [1] (setting [4]) was 12000 nM; in test [3], 39000 nM. The ED50 in test [2] is above 100 mg/kg.

For the compound `CC(C)(C)CCCNC(=O)C(CCC(=O)O)NC(=O)c1cccc(Cl)c1` (racemic) [A9], the IC50 turned out to be 200 nM in test [1] (setting [4]) and 220 nM in test [3]. Also, the ED50 in test [2] was found to be 34 mg/kg.

Regarding `CCC(C)(C)CCNC(=O)C(CCC(=O)O)NC(=O)c1cccc(Cl)c1` (racemic) [A10], the values for the IC50 in test [1] (setting [4]) and in test [3] were 230 nM and 180 nM, respectively. Also, the ED50 in test [2] was determined as 37 mg/kg.

On to `CCC(CC)CCNC(=O)C(CCC(=O)O)NC(=O)c1cccc(Cl)c1` (racemic) [A11], for which the IC50 in test [1] (setting [4]) was 650 nM. For the same compound, the ED50 in test [2] came out at 53 mg/kg.

Regarding `O=C(O)CCC(NC(=O)c1cccc(Cl)c1)C(=O)NC1CCCCCC1` (racemic) [A12], the results for the 50% inhibitory concentration (IC50) in test [1] (setting [4]) and in test [3] were 3800 nM and 6400 nM, respectively. For the same compound, the ED50 in test [2] amounted to 58 mg/kg.

For `CCC(CC)(CC)CCNC(=O)C(CCC(=O)O)NC(=O)c1cccc(Cl)c1` (racemic) [A14], the IC50 in test [1] (setting [4]) amounted to 78 nM; in test [3] it was 93 nM. Also, the ED50 in test [2] amounted to 39 mg/kg.

Regarding `CCCCCNC(=O)C(CCC(=O)O)NC(=O)c1cccc(C)c1` (racemic) [A17], the IC50 in test [1] (setting [4]) came out at 4500 nM; in test [3] it was 17000 nM. The ED50 in test [2] amounted to 65 mg/kg.

Consider `CCCCCCNC(=O)C(CCC(=O)O)NC(=O)c1cccc(C)c1` (racemic) [A18], for which the 50% inhibitory concentration (IC50) in test [1] (setting [4]) came to 5800 nM. For the same compound, the ED50 in test [2] turned out to be 58 mg/kg.

As for `Cc1cccc(C(=O)NC(CCC(=O)O)C(=O)NC2CCCCC2)c1` (racemic) [A19], in test [1] (setting [4]), the IC50 was determined as 41000 nM. Besides, in test [2], the ED50 turned out to be 98 mg/kg.

For the compound `CC(C)(C)CCNC(=O)C(CCC(=O)O)NC(=O)c1cc(Cl)cc(Cl)c1` (racemic) [A21], the IC50 was 69 nM in test [1] and 80 nM in test [3]. The ED50 in test [2] is 34 mg/kg.

For `CCC(C)(CC)CCNC(=O)C(CCC(=O)O)NC(=O)c1cc(C)cc(C)c1` (racemic) [A22], the IC50 in test [1] (setting [4]) is 2900 nM; in test [3], 2400 nM. Moreover, in test [2], the ED50 amounted to 41 mg/kg.

With `CCC(C)(CC)CCNC(=O)C(CCC(=O)O)NC(=O)c1cc(Cl)ccc1[N+](=O)[O-]` (racemic) [A23], the half-inhibitory concentration (IC50) in test [1] (setting [4]) was determined as 66 nM; in test [3], 230 nM. Besides, the ED50 in test [2] stood at 40 mg/kg.

Take `CCC(C)(CC)CCNC(=O)C(CC(=O)O)NC(=O)c1cccc(Cl)c1` (racemic) [A24]: the IC50 in test [1] (setting [4]) was determined as 230 nM; in test [3], 290 nM. The ED50 in test [2] was 42 mg/kg.

On to `O=C(O)CC(NC(=O)c1cccc(Cl)c1)C(=O)NC1CCCCCC1` (racemic) [A25], for which the IC50 in test [1] (setting [4]) is 7300 nM. Further, the ED50 in test [2] came to 74 mg/kg.

`CCC(C)(CC)CCNC(=O)C(CC(=O)O)NC(=O)c1cccc(C)c1` (racemic) [A26]: the IC50 in test [1] (setting [4]) turned out to be 840 nM. Further, in test [2], the ED50 was 52 mg/kg.

`CCC(C)CCNC(=O)C(CCC(=O)O)NC(=O)c1cccc(Cl)c1` (centres unmarked) [A6]: the IC50 in test [1] (setting [4]) is 4500 nM. Besides, the ED50 in test [2] stood at 55 mg/kg.

As to `CCC(C)(CCNC(=O)C(CCC(=O)O)NC(=O)c1cccc(Cl)c1)C(C)C` (centres unmarked) [A16], the half-maximal inhibitory concentration (IC50) in test [1] (setting [4]) was 290 nM. The ED50 in test [2] stood at 37 mg/kg.

With `CC(C)(C)CCCNC(=O)[C@@H](CCC(=O)O)NC(=O)c1cccc(Cl)c1` [D2], the half-maximal inhibitory concentration (IC50) was 34 nM in test [1] (setting [4]) and 59 nM in test [3]. Further, in test [2], the ED50 stood at 34 mg/kg.

In the case of `CCC(C)(CC)CCNC(=O)[C@@H](CCC(=O)O)NC(=O)c1cccc(Cl)c1` [D3], the 50% inhibitory concentration (IC50) in test [1] (setting [4]) was 58 nM. In addition, the ED50 in test [2] was 30 mg/kg.

On to `O=C(O)CC[C@@H](NC(=O)c1cccc(Cl)c1)C(=O)NC1CCCCCC1` [D4], for which the IC50 in test [1] (setting [4]) worked out at 2300 nM. Besides, the ED50 in test [2] came to 64 mg/kg.

For `CC(C)(C)CCNC(=O)[C@H](CCC(=O)O)NC(=O)c1cccc(Cl)c1` [D5, reference compound], the “times less active than the corresponding compound D1” value in test [1] (L-series vs D-series enantiomer, gastric glands) is “about 10 times”. The values for the IC50 in test [1] (setting [4]) and in test [3] were 520 nM and 660 nM, respectively. In test [2], the ED50 stood at 89 mg/kg.

On to `O=C(O)CC[C@H](NC(=O)c1cccc(Cl)c1)C(=O)NC1CCCCCC1` [D6, reference compound], for which, in test [1] (setting [4]), the IC50 is 67000 nM.

As for `CCCN(CCC)C(=O)C(CCC(=O)O)NC(=O)c1ccccc1` (centres unmarked) [Proglumide, reference compound], the ED50 in test [2] is 500 mg/kg. The IC50 in test [3] amounted to 220000 nM.
